Results on 1 compound are retold here after ChEMBL document CHEMBL5154652, “Design, synthesis and anti-hepatocellular carcinoma activity of 3-arylisoquinoline alkaloids” (Eur J Med Chem, 2022).

The structures appear in SMILES notation. Active and inactive are the calls of the source. The rule behind the calls is not given here.

One data set has as its system HCT-116. The experiment in a line: Antiproliferative activity against human HCT-116 cells after 72 hrs by MTT assay. Format: functional, cell-based. To be noted: HCT-116, 72 h. For orientation: Formazan colour is commonly taken as a measure of viable cells.
In the next data set the test system is MCF7. The experiment in a line: Antiproliferative activity against human MCF7 cells after 72 hrs by MTT assay. Type of data set: functional, cell-based. To be noted: MCF7, 72 h.
The next data set concerns MDA-MB-231. The experiment in a line: Antiproliferative activity against human MDA-MB-231 cells after 72 hrs by MTT assay. To be noted: MDA-MB-231, 72 h. Format: functional, cell-based.
In a further data set the test system is SGC-7901. Description: Antiproliferative activity against human SGC-7901 cells after 72 hrs by MTT assay. Type of data set: functional, cell-based. As to conditions: SGC-7901, 72 h.
The test system of a further data set is HL-60. The experiment in a line: Antiproliferative activity against human HL-60 cells after 72 hrs by MTT assay. Type of data set: functional, cell-based. As to conditions: HL-60, 72 h.
A further data set deals with L02. Description: Antiproliferative activity against human L02 cells after 72 hrs by MTT assay. Format: functional, cell-based. To be noted: L02, 72 h.
Data set [1] has as its target DNA topoisomerase 2-alpha (Homo sapiens) (UniProt P11388). The experiment in a line: Inhibition of DNA topoisomerase 2 (unknown origin) at 25 uM measured by agar gel electrophoresis relative to control.
The next data set concerns DNA. The experiment in a line: Binding affinity to DNA (unknown origin) assessed as DNA intercalation at 100 uM measured by unwinding assay relative to control. Format: nucleic-acid assay. As to conditions: Homo sapiens.
The nature of data set [2]: Genotoxicity in human Huh-7 cells assessed as induction of DNA damage at 20 uM by comet assay. Format: toxicity, cell-based. To be noted: huh-7, 20 µM.
In data set [3] the test system is HCCLM9. The experiment in a line: Anticlonogenic activity in human HCCLM9 cells at 1.25 to 5 uM measured by colony formation assay. Type of data set: functional, cell-based. As to conditions: dose 1.25-5 µM.
In data set [4] the test system is HCCLM9. The experiment in a line: Inhibition of cell invasion in human HCCLM9 cells at 1.25 to 5 uM after 24 hrs. To be noted: dose 1.25-5 µM. Format: functional, cell-based.
Data set [5] deals with HCCLM9. Description: Induction of cell cycle arrest in human HCCLM9 cells assessed as decrease in cell accumulation at G0/G1 phase at 3.75 to 15 uM measured after 48 hrs by flow cytometry analysis. To be noted: dose 3.75-15 µM. Type of data set: functional, cell-based.
The subject of data set [6] is Huh-7. The experiment in a line: Induction of cell cycle arrest in human Huh-7 cells assessed as increase in cell accumulation at G2/M phase at 5 to 20 uM measured after 48 hrs by flow cytometry analysis. Format: functional, cell-based. As to conditions: dose 5-20 µM. (In flow cytometry, cells or beads pass a laser one at a time.)
Data set [7] concerns HCCLM9. The experiment in a line: Induction of apoptosis in human HCCLM9 cells at 3.5 to 14 uM measured by Annexin V /propidium iodide staining method. Type of data set: functional, cell-based. To be noted: dose 3.5-14 µM.
The subject of data set [8] is Huh-7. Description: Induction of apoptosis in human Huh-7 cells assessed as reduction in Bcl-2 expression at 5 to 20 uM. Type of data set: functional, cell-based. As to conditions: dose 5-20 µM.
Data set [9] deals with Huh-7. The experiment in a line: Induction of apoptosis in human Huh-7 cells assessed as increase in Bax expression at 5 to 20 uM. Type of data set: functional, cell-based. As to conditions: dose 5-20 µM.
The test system of data set [10] is HCCLM9. Description: Induction of apoptosis in human HCCLM9 cells assessed as increase in cytochrome C expression at 3.75 to 15 uM. To be noted: dose 3.75-15 µM. Type of data set: functional, cell-based.
Data set [11] deals with HCCLM9. Description: Induction of apoptosis in human HCCLM9 cells assessed as increase in cleaved caspase-3 expression at 3.75 to 15 uM. Type of data set: functional, cell-based. To be noted: dose 3.75-15 µM.
Data set [12] relates to Huh-7. The experiment in a line: Induction of mitochondrial apoptosis in human Huh-7 cells assessed as inhibition of p-Akt levels at 5 to 20 uM measured after 48 hrs by Western blot analysis. As to conditions: dose 5-20 µM. Type of data set: functional, cell-based. (In general: Immunoblotting shows a protein as a band on a membrane.)
For data set [13], the system named is HCCLM9. The experiment in a line: Induction of mitochondrial apoptosis in human HCCLM9 cells assessed as inhibition of p-mTOR levels at 3.75 to 15 uM measured after 48 hrs by Western blot analysis. Format: functional, cell-based. To be noted: dose 3.75-15 µM.
The nature of data set [14]: Half-life in male Sprague-Dawley rat at 100 mg/kg, ip. Type of data set: ADME, organism-based. As to conditions: in vivo.
A short description of data set [15]: Tmax in male Sprague-Dawley rat at 100 mg/kg, ip. Type of data set: ADME, organism-based. To be noted: in vivo.
Data set [16] is described as follows: Cmax in male Sprague-Dawley rat at 100 mg/kg, ip. Format: ADME, organism-based. Further details: dose 100 mg/kg, route ip. As to conditions: in vivo.

Sequence of DNA topoisomerase 2-alpha (Homo sapiens) (P11388 whole entry): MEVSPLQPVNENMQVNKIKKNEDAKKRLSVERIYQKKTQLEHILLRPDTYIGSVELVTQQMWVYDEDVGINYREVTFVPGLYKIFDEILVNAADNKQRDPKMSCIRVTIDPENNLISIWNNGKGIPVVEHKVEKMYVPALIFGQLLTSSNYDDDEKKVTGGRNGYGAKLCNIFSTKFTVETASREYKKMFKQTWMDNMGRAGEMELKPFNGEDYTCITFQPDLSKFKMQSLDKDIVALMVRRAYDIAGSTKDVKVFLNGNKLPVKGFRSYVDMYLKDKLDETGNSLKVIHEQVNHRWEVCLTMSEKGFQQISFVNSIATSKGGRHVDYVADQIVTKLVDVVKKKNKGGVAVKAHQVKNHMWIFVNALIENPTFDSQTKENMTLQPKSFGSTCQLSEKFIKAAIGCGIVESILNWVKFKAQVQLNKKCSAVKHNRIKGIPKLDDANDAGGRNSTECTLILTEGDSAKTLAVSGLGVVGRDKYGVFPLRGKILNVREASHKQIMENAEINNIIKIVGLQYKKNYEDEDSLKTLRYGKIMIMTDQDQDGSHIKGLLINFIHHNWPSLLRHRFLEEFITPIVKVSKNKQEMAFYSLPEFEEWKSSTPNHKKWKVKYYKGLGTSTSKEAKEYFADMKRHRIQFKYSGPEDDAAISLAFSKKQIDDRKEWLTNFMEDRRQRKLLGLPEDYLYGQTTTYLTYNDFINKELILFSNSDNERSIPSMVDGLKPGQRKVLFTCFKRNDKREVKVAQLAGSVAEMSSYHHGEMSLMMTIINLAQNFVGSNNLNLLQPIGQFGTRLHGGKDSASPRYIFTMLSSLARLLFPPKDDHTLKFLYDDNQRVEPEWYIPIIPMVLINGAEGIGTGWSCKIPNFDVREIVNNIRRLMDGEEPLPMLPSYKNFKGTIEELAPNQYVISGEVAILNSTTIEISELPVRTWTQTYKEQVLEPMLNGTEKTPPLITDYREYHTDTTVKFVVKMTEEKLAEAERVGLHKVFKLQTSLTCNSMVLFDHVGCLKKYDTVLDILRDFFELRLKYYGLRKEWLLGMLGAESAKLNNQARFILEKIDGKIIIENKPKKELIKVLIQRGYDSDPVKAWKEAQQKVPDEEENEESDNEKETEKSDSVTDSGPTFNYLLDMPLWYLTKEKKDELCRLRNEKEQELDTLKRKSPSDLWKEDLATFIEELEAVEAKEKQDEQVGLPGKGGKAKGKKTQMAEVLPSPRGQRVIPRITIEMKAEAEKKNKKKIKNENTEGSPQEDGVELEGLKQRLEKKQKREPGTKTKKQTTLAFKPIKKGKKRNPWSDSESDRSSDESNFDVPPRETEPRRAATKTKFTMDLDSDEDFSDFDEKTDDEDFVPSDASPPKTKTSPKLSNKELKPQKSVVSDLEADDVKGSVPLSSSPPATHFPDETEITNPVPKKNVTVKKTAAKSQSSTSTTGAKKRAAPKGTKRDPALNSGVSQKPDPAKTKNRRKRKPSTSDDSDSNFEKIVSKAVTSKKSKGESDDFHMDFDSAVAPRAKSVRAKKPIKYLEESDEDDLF

On to `CNCc1cc2c(cc1-c1cc3ccc4c(c3cn1)OCO4)OCO2`, for which the IC50 (in general, the concentration needed to halve the response being measured) is 64 µM in the data set with HCT-116; 22.4 µM in the data set with MCF7; 19.9 µM in the data set with MDA-MB-231; 30.8 µM with SGC-7901; 59.1 µM with HL-60; above 150 µM with L02. The inhibition result (in [1]; in the data set with HCCLM9 [4]) was “Active” each time. Further, the outcome in the data set with DNA, with HCCLM9 [3], with HCCLM9 [5], in the data set on Huh-7 [6], in the data set on HCCLM9 [7] and in the data set on Huh-7 [8] was Active. Further, the result in the data set on Huh-7 [9], in the data set on HCCLM9 [10], in the data set on HCCLM9 [11], in the data set with Huh-7 [12] and in the data set on HCCLM9 [13] was Active. Moreover, the Activity result in data set [2] was “Non-Toxic”. Also, the half-life (as a rule, how long it takes for the measured level to halve) in data set [14] was 3.73 h. In addition, the Tmax (usually the time at which the peak concentration occurs) in [15] was 1 h. The Cmax (usually the peak of the concentration-time curve) in data set [16] was determined as 8900 ng/mL.
